From patent US10910085B2, “Methods of making polypeptides with non-standard amino acids using genomically recoded organisms” (President and Fellows of Harvard College, priority 2014, dated 2021)

Experiments:
[1] = system: genomically recoded organism (GRO); experiment: titration of optimal NSAA concentration by GFP_UAG fluorescence assay (FL/ODmax); assay type: cell-based, E. coli; details: GRO bearing synthetase/tRNA and GFP_UAG reporter plasmids; NSAA range 10 uM to 10 mM
Description: First, genomically recoded organisms (“GRO”) as described above were cultured in triplicate in LB-Lennox broth, across a dilution series from 1 uM to 10 mM (incl. 0 uM) NSAA in a 96-well plate. GRO growth (OD600) was kinetically monitored to quantify growth rates and reductions were measured as time to OD600=0.4 and Vmax (dODmax/dt). These experiments helped define the sub-toxic concentration range of an NSAA of interest. Second, the GRO strain was transformed with an L-arabinose-inducible plasmid bearing the synthetase/tRNA that are specific for the NSAA side chain reactivity being evaluated. See Lajoie, M. J. et al. Genomically recoded organisms expand biological functions. […] Only GROs will read these codons as sense codons, not terminate the GFP_UAG translation, and generate NSAA-containing GFP that fluoresces. Patent translation of GFP_UAG (e.g., fluorescence) requires culture in NSAA and transformation with a plasmid bearing the proper synthetase/tRNA pair to use that NSAA. In this way, GFP fluorescence can be a quantitative metric for NSAA-containing protein translation. […] Due to auto-fluorescence of LB-Lennox media, the cells were washed twice in phosphate-buffered saline (pH 7.2) by centrifugation at 4,000×g for 5 minutes. […] GFP translation was normalized by OD600 as fluorescence divided by OD600 when measured (FL/OD), and optimal concentration of NSAA was FL/ODmax.

[2] = system: genomically recoded organism (GRO); assay type: cell-based, E. coli; details: pAzF held constant at 1 mM; for reductions in FL/OD (GFP fluorescence divided by OD600): alkyne containing compound varied from 10 uM-10 mM, GRO culture; for reductions in OD consistent with reaction with pAzF: canonical amino acid controls
Description: To meet the third criteria, NSAA expression using previously evolved amino acyl synthetase/tRNA pairs was used. Synthetases charge a cognate amino acid substrate onto the cognate tRNA pair. An amino acid, a synthetase, and a tRNA form a triad that is required to make that amino acid competent for translation and addition to the nascent polypeptide chain. Amino acid/synthetase/tRNA triads are generally specific thereby preserving the fidelity of the translation of genetic code into proteins. As such, new synthetase/tRNA pairs that function specifically with each other are generated and used to add new NSAAs to the genetic code (or to evaluate the bio-orthogonality of bond-forming NSAA candidates). Alternatively, known synthetase/tRNA pairs are used to evaluate the bio-orthgonality of bond-forming NSAA candidate pairs.
First, genomically recoded organisms (“GRO”) as described above were cultured in triplicate in LB-Lennox broth, across a dilution series from 1 uM to 10 mM (incl. 0 uM) NSAA in a 96-well plate. GRO growth (OD600) was kinetically monitored to quantify growth rates and reductions were measured as time to OD600=0.4 and Vmax (dODmax/dt). These experiments helped define the sub-toxic concentration range of an NSAA of interest. Second, the GRO strain was transformed with an L-arabinose-inducible plasmid bearing the synthetase/tRNA that are specific for the NSAA side chain reactivity being evaluated. See Lajoie, M. J. et al. Genomically recoded organisms expand biological functions. Science 342, 357-360, doi:10.1126/science.1241459 (2013) hereby incorporated by reference in its entirety. […] Only GROs will read these codons as sense codons, not terminate the GFP_UAG translation, and generate NSAA-containing GFP that fluoresces. Patent translation of GFP_UAG (e.g., fluorescence) requires culture in NSAA and transformation with a plasmid bearing the proper synthetase/tRNA pair to use that NSAA. In this way, GFP fluorescence can be a quantitative metric for NSAA-containing protein translation. […] Due to auto-fluorescence of LB-Lennox media, the cells were washed twice in phosphate-buffered saline (pH 7.2) by centrifugation at 4,000×g for 5 minutes. After the second wash, the cells were resuspended in 150 uL PBS for measurement of growth (OD600) and GFP fluorescence (excitation 388 nm, emission 510 nm) using a Biotek Synergy H1/H4 or a Molecular Devices M5 Spectrophotometer. GFP translation was normalized by OD600 as fluorescence divided by OD600 when measured (FL/OD), and optimal concentration of NSAA was FL/ODmax.
Once optimal NSAA concentration was determined, a candidate NSAA is tested to determine whether it impairs translation of the other cognate pair. […] After culture and washing as above, FL/OD was measured and plotted as a function of the NSAA being varied. […]

SMILES | reductions in FL/OD (GFP fluorescence divided by OD600) [2] | reductions in OD consistent with reaction with pAzF [2] | also measured
[N-]=[N+]=Nc1ccc(C[C@H](N)C(=O)O)cc1 [pAzF, para-azido-phenylalanine] | – | – | optimal concentration of NSAA (FL/ODmax) [1]: 1 mM
C#CCONCC(=O)O [pPrG, propargyl-oxyglycine] | no reductions in FL/OD | – | –
N[C@@H](CO)C(=O)O [serine] | – | do not show any reductions in OD | –
N[C@@H](Cc1ccc(O)cc1)C(=O)O [tyrosine] | – | do not show any reductions in OD | –
C1#CCCCCCC1 [unsubstituted cyclo-octynes] | no reductions in FL/OD | – | –
